Laboratory results taken from patent US10562898B2, “Substituted benzenesulfonamides as inhibitors of alpha-4 beta-7 integrin activity” (EA PHARMA CO., LTD., priority 2016, dated 2020).

target: T1, α4β1 integrin (Homo sapiens, UniProt P05556+P13612); test: VCAM-1/α4β1 integrin binding inhibitory activity evaluation test (Jurkat cells binding to VCAM-1/Fc); format: cell-based; details: recombinant human VCAM-1/Fc
T1 construct: a cell line Jurkat, which is known to express α4β1 integrin; endogenous in cells; host or cells: Jurkat (human T cell line)
Procedure: (1) VCAM-1/α4β1 Integrin Binding Inhibitory Activity Evaluation Test
Each test substance was measured in terms of an ability to inhibit the VCAM-1 binding of a human T cell line, namely, a cell line Jurkat, which is known to express α4β1 integrin.
A solution of recombinant human VCAM-1/Fc (R&D Systems, Inc.) (1 μg/mL) diluted with a buffer A (carbonate buffer, pH 9.6) was placed in an amount of 50 μL/well in a 96-well microtiter plate, followed by incubation at 4° C. overnight. After the plate was washed with PBS once, 150 μL/well of Block Ace (Snow Brand Milk Products Co., Ltd.) was added, followed by incubation at room temperature for 2 hours. After removal, the plate was washed with PBS once.
Then, 100 μL of the Jurkat cells (2×10^6 cells/mL) and 100 μL of the test substance at each of various concentrations diluted with a binding buffer (DMEM containing 40 mM HEPES, 0.2% BSA, and 4 mM MnCl2) were added to the plate coated with the VCAM-1/Fc (5×10^5 cells/well), followed by incubation at 30° C. for 15 to 60 minutes. After the cells were bound to the wells, the plate was washed with PBS to remove unbound cells. A buffer C (PBS containing 1.5% Triton X-100) was added in an amount 50 μL/well to the plate to lyse the bound Jurkat cells. After 30 μL of a substrate buffer (Promega, CytoTox 96 Non-Radioactive Cytotoxicity Assay) was added to 30 μL of the cell lysate, a reaction was allowed to proceed at room temperature in the dark for 30 minutes. After 30 μL of a stop solution (Promega, CytoTox 96 Non-Radioactive Cytotoxicity Assay) was added to each, and then an absorbance at 490 nm was measured using a plate reader. The absorbance obtained here represents a detection result of an activity of lactate dehydrogenase (LDH) eluted in the supernatant of each well, that is, the absorbance is proportional to the number of Jurkat cells bound to the VCAM-1 and thus remaining on the plate. The test was performed in duplicate. Provided that the absorbance of a well containing no test substance was 100%, a cell binding rate with the test substance at each of the various concentrations was figured out, and a concentration IC50 which brought about 50% binding inhibition was calculated.

T1 sequence (P13612 34-1032): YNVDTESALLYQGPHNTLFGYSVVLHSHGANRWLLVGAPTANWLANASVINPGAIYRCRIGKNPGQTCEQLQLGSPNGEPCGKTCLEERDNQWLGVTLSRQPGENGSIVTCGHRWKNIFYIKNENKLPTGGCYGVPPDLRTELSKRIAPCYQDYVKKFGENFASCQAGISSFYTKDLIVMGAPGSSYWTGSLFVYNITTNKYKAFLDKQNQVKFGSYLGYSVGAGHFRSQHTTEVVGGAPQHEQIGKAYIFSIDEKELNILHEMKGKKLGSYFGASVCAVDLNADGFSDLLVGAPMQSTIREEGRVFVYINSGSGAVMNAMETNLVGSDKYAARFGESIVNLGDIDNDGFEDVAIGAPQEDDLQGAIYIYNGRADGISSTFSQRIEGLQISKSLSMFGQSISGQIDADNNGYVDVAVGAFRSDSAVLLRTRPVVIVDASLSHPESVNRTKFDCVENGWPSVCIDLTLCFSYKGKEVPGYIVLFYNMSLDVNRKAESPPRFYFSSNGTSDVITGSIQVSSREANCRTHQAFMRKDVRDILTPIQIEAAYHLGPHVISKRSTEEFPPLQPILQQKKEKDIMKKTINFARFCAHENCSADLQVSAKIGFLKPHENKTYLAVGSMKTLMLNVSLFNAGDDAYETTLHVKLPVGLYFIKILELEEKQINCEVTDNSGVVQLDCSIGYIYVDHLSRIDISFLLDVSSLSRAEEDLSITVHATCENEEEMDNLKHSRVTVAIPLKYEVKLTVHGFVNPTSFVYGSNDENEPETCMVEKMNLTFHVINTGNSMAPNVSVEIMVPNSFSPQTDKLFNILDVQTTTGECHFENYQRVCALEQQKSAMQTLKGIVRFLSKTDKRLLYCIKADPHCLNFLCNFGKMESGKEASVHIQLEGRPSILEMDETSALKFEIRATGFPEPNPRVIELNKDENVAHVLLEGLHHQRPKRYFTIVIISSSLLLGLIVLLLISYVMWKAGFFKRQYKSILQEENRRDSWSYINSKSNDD
T1 sequence (P05556 21-798): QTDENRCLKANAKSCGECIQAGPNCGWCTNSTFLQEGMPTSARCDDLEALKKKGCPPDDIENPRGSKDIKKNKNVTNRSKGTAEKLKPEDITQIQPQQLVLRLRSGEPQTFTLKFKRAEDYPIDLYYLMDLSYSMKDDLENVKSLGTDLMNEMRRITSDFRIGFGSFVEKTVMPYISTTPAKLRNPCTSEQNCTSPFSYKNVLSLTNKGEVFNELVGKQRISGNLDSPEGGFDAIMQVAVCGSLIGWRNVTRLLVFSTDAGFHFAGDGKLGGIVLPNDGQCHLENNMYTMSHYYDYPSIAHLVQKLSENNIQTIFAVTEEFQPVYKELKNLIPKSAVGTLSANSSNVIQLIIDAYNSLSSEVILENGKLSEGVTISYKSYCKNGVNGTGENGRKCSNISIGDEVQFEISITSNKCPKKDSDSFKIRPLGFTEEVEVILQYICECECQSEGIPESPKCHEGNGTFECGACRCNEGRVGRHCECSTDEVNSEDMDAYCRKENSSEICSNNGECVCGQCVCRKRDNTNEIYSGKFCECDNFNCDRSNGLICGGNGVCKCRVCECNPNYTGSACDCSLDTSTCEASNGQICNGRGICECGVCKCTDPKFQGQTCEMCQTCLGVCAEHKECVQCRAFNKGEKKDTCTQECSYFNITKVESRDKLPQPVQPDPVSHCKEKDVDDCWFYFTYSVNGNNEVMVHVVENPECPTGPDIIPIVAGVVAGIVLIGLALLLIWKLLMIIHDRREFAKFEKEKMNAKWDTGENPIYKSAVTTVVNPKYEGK

Which IC50 does the source give for `Cn1cnc2c1c(=O)n(-c1ccc(C[C@H](NC(=O)c3cc(F)c(NS(=O)(=O)c4ccc(NC(=O)C(C)(C)C)cc4)cc3F)C(=O)O)cc1)c(=O)n2C` [Compound A43] here?
The IC50 was 1.2 µM.

Which IC50 does the source give for `Cn1c2c(c(=O)n(-c3ccc(C[C@H](NC(=O)c4cc(F)c(NS(=O)(=O)c5ccc(NC(=O)C(C)(C)C)cc5)cc4F)C(=O)O)cn3)c1=O)COCC2` [Compound A44] here?
Its IC50 is 3.4 µM.

With `Cc1cc(=O)n(-c2ccc(C[C@H](NC(=O)c3cc(F)c(NS(=O)(=O)c4ccc(NC(=O)C(C)(C)C)cc4)cc3F)C(=O)O)cn2)c(=O)n1C` [Compound A45] as the compound, how does the IC50 read?
The IC50 was 10 µM.

With `Cc1cc(=O)n(-c2ccc(C[C@H](NC(=O)c3cc(F)c(NS(=O)(=O)c4ccc(NC(=O)C(C)(C)C)cc4)cc3F)C(=O)O)cc2)c(=O)n1C` [Compound A46] as the compound, how does the IC50 read?
Its IC50 is 1.8 µM.

With `Cn1c2c(c(=O)n(-c3ccc(C[C@H](NC(=O)c4cc(F)c(NS(=O)(=O)c5ccc(NC(=O)C(C)(C)C)cc5)cc4F)C(=O)O)nc3)c1=O)CCCC2` [Compound A47] as the compound, how does the IC50 read?
Its IC50 is 4.1 µM.

With `Cc1c(C)n(C(C)C)c(=O)n(-c2ccc(C[C@H](NC(=O)c3cc(F)c(NS(=O)(=O)c4ccc(NC(=O)C(C)(C)C)cc4)cc3F)C(=O)O)cc2)c1=O` [Compound A48] as the compound, how does the IC50 read?
Its IC50 is 11 µM.

`Cc1c(C)n(C)c(=O)n(-c2ccc(C[C@H](NC(=O)c3cc(F)c(NS(=O)(=O)c4cccc(NC(=O)C(C)(C)C)c4)cc3F)C(=O)O)cc2)c1=O` [Compound A49] was tested. Which IC50 did it give?
Its IC50 is 1.8 µM.

For `Cc1c(C)n(C)c(=O)n(-c2ccc(C[C@H](NC(=O)c3cc(F)c(NS(=O)(=O)c4cccc(NC(=O)C(C)(C)C)c4)cc3F)C(=O)O)cn2)c1=O` [Compound A50], which IC50 is on record?
The IC50 was 7.1 µM.

For `Cc1c(CO)c(=O)n(-c2ccc(C[C@H](NC(=O)c3cc(F)c(NS(=O)(=O)c4ccc(NC(=O)C(C)(C)C)cc4)cc3F)C(=O)O)cc2)c(=O)n1C` [Compound A51], which IC50 is on record?
The IC50 was 5.5 µM.

`Cn1c2c(c(=O)n(-c3ccc(C[C@H](NC(=O)c4cc(F)c(NS(=O)(=O)c5ccc(NC(=O)C(C)(C)C)cc5)cc4F)C(=O)O)cn3)c1=O)CCCC2` [Compound A52] was tested. Which IC50 did it give?
The IC50 was 2.2 µM.

With `Cn1ccc(=O)n(-c2ccc(C[C@H](NC(=O)c3cc(F)c(NS(=O)(=O)c4ccc(NC(=O)C(C)(C)C)cc4)cc3F)C(=O)O)cn2)c1=O` [Compound A53] as the compound, how does the IC50 read?
The IC50 was over 31.2 µM.

With `Cc1cn(C)c(=O)n(-c2ccc(C[C@H](NC(=O)c3cc(F)c(NS(=O)(=O)c4ccc(NC(=O)C(C)(C)C)cc4)cc3F)C(=O)O)cn2)c1=O` [Compound A54] as the compound, how does the IC50 read?
The IC50 was 29 µM.

How did the IC50 turn out when `Cn1ccc(=O)n(-c2ccc(C[C@H](NC(=O)c3cc(F)c(NS(=O)(=O)c4ccc(NC(=O)C5(C(F)(F)F)CC5)cc4)cc3F)C(=O)O)cn2)c1=O` [Compound A55] was run?
The IC50 was over 31.2 µM.

`Cc1cn(C)c(=O)n(-c2ccc(C[C@H](NC(=O)c3cc(F)c(NS(=O)(=O)c4ccc(NC(=O)C5(C(F)(F)F)CC5)cc4)cc3F)C(=O)O)cn2)c1=O` [Compound A56] was tested. Which IC50 did it give?
Its IC50 is 19 µM.

With `Cn1ccc(=O)n(-c2ccc(C[C@H](NC(=O)c3cc(F)c(NS(=O)(=O)c4ccc(NC(=O)C(C)(C)C(F)(F)F)cc4)cc3F)C(=O)O)cn2)c1=O` [Compound A57] as the compound, how does the IC50 read?
The IC50 was 25 µM.

For `Cc1cn(C)c(=O)n(-c2ccc(C[C@H](NC(=O)c3cc(F)c(NS(=O)(=O)c4ccc(NC(=O)C(C)(C)C(F)(F)F)cc4)cc3F)C(=O)O)cn2)c1=O` [Compound A58], which IC50 is on record?
The IC50 was 14 µM.

With `Cn1ccc(=O)n(-c2ccc(C[C@H](NC(=O)c3cc(F)c(NS(=O)(=O)c4ccc(NC(=O)C5(C#N)CC5)cc4)cc3F)C(=O)O)cn2)c1=O` [Compound A59] as the compound, how does the IC50 read?
Its IC50 is over 31.2 µM.

For `Cc1cn(C)c(=O)n(-c2ccc(C[C@H](NC(=O)c3cc(F)c(NS(=O)(=O)c4ccc(NC(=O)C5(C#N)CC5)cc4)cc3F)C(=O)O)cn2)c1=O` [Compound A60], which IC50 is on record?
Its IC50 is 12 µM.

With `CCC(CC)C(=O)Nc1ccc(S(=O)(=O)Nc2cc(F)c(C(=O)N[C@@H](Cc3ccc(-n4c(=O)ccn(C)c4=O)nc3)C(=O)O)cc2F)cc1` [Compound A61] as the compound, how does the IC50 read?
Its IC50 is over 31.2 µM.

How did the IC50 turn out when `Cn1ccc(=O)n(-c2ccc(C[C@H](NC(=O)c3cc(F)c(NS(=O)(=O)c4ccc(NC(=O)C(C)(C)CO)cc4)cc3F)C(=O)O)cn2)c1=O` [Compound A62] was run?
The IC50 was over 31.2 µM.

How did the IC50 turn out when `Cc1cn(C)c(=O)n(-c2ccc(C[C@H](NC(=O)c3cc(F)c(NS(=O)(=O)c4ccc(NC(=O)C(C)(C)CO)cc4)cc3F)C(=O)O)cn2)c1=O` [Compound A63] was run?
Its IC50 is over 31.2 µM.

With `Cn1ccc(=O)n(-c2ccc(C[C@H](NC(=O)c3cc(F)c(NS(=O)(=O)c4ccc(NC(=O)C5CCCC5)cc4)cc3F)C(=O)O)cn2)c1=O` [Compound A64] as the compound, how does the IC50 read?
The IC50 was over 31.2 µM.

Which IC50 does the source give for `Cc1cn(C)c(=O)n(-c2ccc(C[C@H](NC(=O)c3cc(F)c(NS(=O)(=O)c4ccc(NC(=O)C5CCCC5)cc4)cc3F)C(=O)O)cn2)c1=O` [Compound A65] here?
Its IC50 is 21 µM.

How did the IC50 turn out when `Cn1c(C(F)(F)F)cc(=O)n(-c2ccc(C[C@H](NC(=O)c3cc(F)c(NS(=O)(=O)c4ccc(NC(=O)C(C)(C)C)cc4)cc3F)C(=O)O)cn2)c1=O` [Compound A66] was run?
The IC50 was 19 µM.

For `Cn1cc(C(F)(F)F)c(=O)n(-c2ccc(C[C@H](NC(=O)c3cc(F)c(NS(=O)(=O)c4ccc(NC(=O)C(C)(C)C)cc4)cc3F)C(=O)O)cn2)c1=O` [Compound A67], which IC50 is on record?
The IC50 was 19 µM.

How did the IC50 turn out when `Cc1cn(C)c(=O)n(-c2ccc(C[C@H](NC(=O)c3cc(F)c(NS(=O)(=O)c4ccc(NC(=O)C#CC(C)(C)C)cc4)cc3F)C(=O)O)cn2)c1=O` [Compound A68] was run?
Its IC50 is 2.3 µM.

`Cc1cn(C)c(=O)n(-c2ccc(C[C@H](NC(=O)c3cc(F)c(NS(=O)(=O)c4ccc(NC(=O)C(C)(C)C)cc4)cc3F)C(=O)O)nc2)c1=O` [Compound A69] was tested. Which IC50 did it give?
Its IC50 is 13 µM.

Which IC50 does the source give for `Cn1ccc(=O)n(-c2ccc(C[C@H](NC(=O)c3cc(F)c(NS(=O)(=O)c4ccc(NC(=O)C(C)(C)C)cc4)cc3F)C(=O)O)nc2)c1=O` [Compound A70] here?
The IC50 was 38 µM.

Which IC50 does the source give for `Cc1cn(C)c(=O)n(-c2ccc(C[C@H](NC(=O)c3cc(F)c(NS(=O)(=O)c4ccc(NC(=O)C(C)C)cc4)cc3F)C(=O)O)cn2)c1=O` [Compound A71] here?
Its IC50 is 15 µM.

Which IC50 does the source give for `Cc1cc(=O)n(-c2ccc(C[C@H](NC(=O)c3cc(F)c(NS(=O)(=O)c4ccc(NC(=O)C(C)(C)C)cc4)cc3F)C(=O)O)nc2)c(=O)n1C` [Compound A72] here?
The IC50 was 9.3 µM.

`Cc1cn(C)c(=O)n(-c2ccc(C[C@H](NC(=O)c3cc(F)c(NS(=O)(=O)c4ccc(NC(=O)C(C)(C)C)s4)cc3F)C(=O)O)cn2)c1=O` [Compound A73] was tested. Which IC50 did it give?
Its IC50 is 21 µM.

Which IC50 does the source give for `Cc1cn(C)c(=O)n(-c2ccc(C[C@H](NC(=O)c3cc(F)c(NS(=O)(=O)c4ccc5c(NC(=O)C(C)(C)C)c[nH]c5c4)cc3F)C(=O)O)cn2)c1=O` [Compound A74] here?
The IC50 was 7.4 µM.

`CN1CCC(=O)N(c2ccc(C[C@H](NC(=O)c3cc(F)c(NS(=O)(=O)c4ccc(NC(=O)C(C)(C)C)cc4)cc3F)C(=O)O)cn2)C1=O` [Compound A75, (2S)-2-[2,5-difluoro-4-[(4-pivalamidophenyl)sulfonamide]benzamido]-3-[6-(3-methyl-2,6-dioxotetrahydropyrimidin-1(2H)-yl)pyridin-3-yl]propanoic acid] was tested. Which IC50 did it give?
Its IC50 is 32 µM.

With `Cc1cn(C)c(=O)n(-c2ccc(C[C@H](NC(=O)c3cc(F)c(NS(=O)(=O)c4cc5cc(NC(=O)C(C)(C)C)ccc5[nH]4)cc3F)C(=O)O)cn2)c1=O` [Compound A76] as the compound, how does the IC50 read?
The IC50 was 25 µM.

How did the IC50 turn out when `Cc1cn(C)c(=O)n(-c2ccc(C[C@H](NC(=O)c3cc(F)c(NS(=O)(=O)c4c[nH]c5cc(NC(=O)C(C)(C)C)ccc45)cc3F)C(=O)O)cn2)c1=O` [Compound A77] was run?
Its IC50 is 7.1 µM.
